According to PMC4465272 (eNeuro, 2015):
“Also recorded” adds a separate entry of the source.

Tests used:
[1] = tested on: CaV current in rat sensory neurons (DRG); assay: cells; assay type: cell-based, rat (adult male Sprague Dawley)
[2] = tested on: N-type CaV (CaV2.2) current in sensory neurons; conditions: cited from earlier work
α9α10 nAChRs = conditions: cited from earlier work
[3] = tested on: GABAB receptors expressed in Xenopus laevis oocytes; conditions: cited from earlier work
human GABAB receptor = conditions: cited from earlier work
rat α9α10 nAChRs = assay type: cell-based
[4] = tested on: nAChRs subtypes containing the α3 subunit; conditions: cited from earlier work
animal pain models = conditions: in vivo; cited from earlier work
[5] = tested on: eEPSCs in the dorsal horn of rat spinal cord; conditions: cited from earlier work

Substance: Vc1.1
- CaV current inhibition in the neuron with the largest Vc1.1 and RgIA response [1]: 41%
- CaV current inhibition in the neuron with the largest baclofen response [1]: 3.5%
- average CaV current inhibition in neurons with baclofen responses of 20 − 24% [1]: 4.3 ± 6.6%
- enhancement of CaV current inhibition by BSA [1]: no enhancement of the CaV current inhibition was observed
- inhibition of CaV current in example neuron [1]: 40%
- postpulse CaV current inhibition [1]: 6.2 ± 12.5%
- prepulse CaV current inhibition [1]: 6.5 ± 12.7%
- recovery τ from CaV current block [1]: 0.5 ± 0.2 min
- reversibility of CaV current block [1]: readily reversible; also recorded: almost full recovery from inhibition
- voltage dependence of CaV current inhibition [1]: not voltage-dependent
- average CaV current inhibition (as summarised in discussion) ([1]; 1 µM): 7%
- average effect on CaV current (in words) ([1]; 1 µM): only minimal inhibition
- neurons responding with CaV current inhibition >10% ([1]; 1 µM): 19%
- GABAB dependence of N-type CaV current inhibition [2]: requires functional GABAB receptors
- reversibility of CaV current block [2]: irreversible
- sensory neurons with CaV current inhibited [2]: ~75%
- antagonism of α9α10 nAChRs (α9α10 nAChRs): potent antagonists
- activation of GABAB receptors [3]: do not activate GABAB receptors; also recorded: failed to activate GABAB receptors
- effect on binding of [^3H]CGP-54626, a specific competitive antagonist (human GABAB receptor): failed to block binding; also recorded: Neither Vc1.1 or RgIA were able to prevent the binding
- block of ACh-induced current (rat α9α10 nAChRs): 85 ± 13%
- antagonism of nAChRs containing the α3 subunit [4]: weakly antagonizes
- antinociceptive / analgesic effect (animal pain models): antinociceptive effects
- effect on eEPSCs / EPSPs in dorsal horn [5]: does not affect excitatory neurotransmitter release; also recorded: no inhibition of EPSPs; also recorded: failed to affect
